Results reported in patent publication US20110319485A1, “Composition Having Anti-Helicobacter Pylori Activity And Its Application To Inhibit Helicobacter Pylori” (Yushen Biotechnology & Medical Co, Ltd., priority 2010, published 2011).
In brackets after ≈: the same amount, converted by molar mass. Where two headings read alike, the source gives them in different places. Marks after values point to notes of the source that are not given here.

Tests used:
[1] = test system: Helicobacter pylori; details: A Vasquez et al., 1996; cited from earlier work
[2] = test system: Helicobacter pylori BCRC 17027 strain; assay: Minimum bactericidal concentration (MBC), broth dilution; format: cell-based; details: broth dilution assay, 1 hour exposure in Brucella broth, then plated 72 hours, means of three experiments
[3] = test system: Helicobacter pylori BCRC 17027 strain; assay: Minimum inhibitory concentration (MIC), agar-dilution method; format: cell-based; details: BCRC17027, agar dilution assay, TSA with 5% sheep blood, 72 hours, 37° C.
Procedure: H. pylori BCRC 17027 was obtained from the Bioresources Collection and Research Center (BCRC), Hsinchu, Taiwan, ROC. The H. pylori strain was cultured in 5 mL tryptic soy broth (TSB, each liter containing: 17 g peptone from casein, 3 g peptone from soymeal, 2.5 g dextrose, 5 g sodium chloride, 2.5 g dipotassium phosphate, pH 7.3) with a tryptic soy agar (TSA, each liter containing: 15 g peptone from casein, 5 g peptone from soymeal, 5 g sodium chloride, 15 g agar, pH 7.3) and slant containing 5% (v/v) of defibrinated sheep blood formed at the bottom of the test tube.
The broth was incubated in a microaerophilic jar system (BBL), featuring a gas composition of 5% O2, 10% CO2 and 85% N2 (BD GasPak™ EZ Gas Generating systems), at 37° C. for 72 hours. The cell suspension was then diluted with TSB to provide a cell concentration of 3×10^8 CFUs/mL for antimicrobial testing.
The MIC of the purified substance was determined by the agar-dilution method (Shungu et al., 1987, Antimicrob Agents Chemother, 31: 949-950). A volume of 40 μL of cell suspension (initial bacterial count 3×10^8 CFUs/mL) was spread onto the TSA agar plates containing 5% (v/v) defibrinated sheep blood. […] DMSO was used as control. Metronidazole (MTZ) and clarithromycin (CLA) were co-assayed as the positive reference at concentrations of 8.0-128.0 μg/mL and 0.008-0.128 μg/mL, respectively. Following incubation in a microaerophilic jar system, featuring a gas composition of 5% O2, 10% CO2 and 85% N2, at 37° C. for 72 hours, the colonies that had formed on the plates were enumerated. The MIC was defined as the minimum concentration of the test sample (antibacterial agent) in a given culture medium on which bacteria are not able to form colonies.

[4] = test system: H. pylori BCRC 17027; assay: Inhibitory-zone measurement (agar well diffusion assay); format: cell-based, Helicobacter pylori; details: for zone of inhibition at 40000 µg/mL: Helicobacter pylori, BCRC17027, 72 h, read-out: The diameter of inhibitory-zone
Procedure: H. pylori BCRC 17027 was obtained from the Bioresources Collection and Research Center (BCRC), Hsinchu, Taiwan, ROC. […] The cell suspension was then diluted with TSB to provide a cell concentration of 3×10^8 CFUs/mL for antimicrobial testing. An agar well diffusion assay was used to determine if H. pylori was susceptible to the anti-bacterial activity of the various fractions and isolates (al Somal et al., 1994, J R Soc Med, 87: 9-12). A volume of 100 μL for each of the bacterial suspensions tested (3×10^8 CFUs/mL) was spread onto the TSA agar plate containing 5% (v/v) defibrinated sheep blood. Wells sized 7 mm in diameter were punched on the plates with 5 μL of the Fr1-Fr5 and ovatodiolide (40 mg/mL; DMSO as solvent) to be individually incorporated into the wells. DMSO was used as negative control and metronidazole (MTZ, 40 mg/mL) was used as positive control.

[5] = Helicobacter pylori, BCRC17027, read-out: MBC
[6] = 5 μL of 40 mg/mL in DMSO per 7 mm well (200 μg/disk), 72 hours, 37° C., microaerophilic, mean±S.D.

MIC [3] [µg/mL]	SMILES	minimum inhibitory concentration of known antibiotics [1] [µg/mL]	MBC [2, 5] [µg/mL]	zone of inhibition at 40000 µg/mL [4, 6] [mm]	Anti-Helicobacter pylori activity in inhibitory-zone assay (in words) ([4]; agar well diffusion)	The diameter of inhibitory-zone [4, 6] [mm]	MBC [2]
0.032 (≈ 0.0428 µM)	CC[C@H]1OC(=O)[C@H](C)[C@@H](O[C@H]2C[C@@](C)(OC)[C@@H](O)[C@H](C)O2)[C@H](C)[C@@H](O[C@@H]2O[C@H](C)C[C@H](N(C)C)[C@H]2O)[C@](C)(OC)C[C@@H](C)C(=O)[C@H](C)[C@@H](O)[C@]1(C)O [Clarithromycin]	0.25	1 (≈ 1.34 µM)	–	–	–	–
64 (≈ 374 µM)	Cc1ncc([N+](=O)[O-])n1CCO [Metronidazole]	64	2560 (≈ 15000 µM)	21.8 ± 3.1	inhibition halos smaller than ovatodiolide	–	–
16 (≈ 48.7 µM)	C=C1C(=O)OC2/C=C(\C)C[C@H]3C=C(CC/C=C(\C)CC[C@H]12)C(=O)O3 (stereo partly shown) [Ovatodiolide, ovatodiolide]	–	80 (≈ 244 µM)	34	–	34.4 ± 2.0	80^b μg/mL
